We go through two compounds from patent US12741974B2, “Compounds constituting C20-modified salinomycin derivatives, a method for obtaining the same, a composition containing the same, a use of said compounds and a method for obtaining an intermediate product” (FILECLO SP. Z O.O., priority 2020, dated 2021).

In data set [1] the test system is BALB/3T3 (normal murine fibroblasts). The experiment in a line: In vitro cytotoxicity test on normal cells, SRB assay, 72 h incubation with compound. The data set is classed as cell-based. The conditions noted are these: read-out: IC50 BALB/3T3. How it is done:
(§1) Normal murine BALB/3T3 fibroblasts were also used in the tests for determining the selectivity coefficients of the compounds used in the assays.
(§2) In vitro cytotoxicity tests were performed according to the procedure described below. […] The solvent for further dilutions was a culture medium.
(§3) The experiments were repeated at least 3 times.
On the technique in general: The SRB assay estimates cell density from bound dye.

Data set [2] has as its system MV-4-11 (human biphenotypic leukaemia). The experiment in a line: In vitro cytotoxicity test, MTT assay, 72 h incubation with compound. The data set is classed as cell-based. The conditions noted are these: for IC50: MV-4-11 human biphenotypic leukaemia, MTT, 72 h; for SI MV-4-11: selectivity coefficient, BALB/3T3 versus MV-4-11. How it is done: as §2, §3
After 4 hours of incubation at 37° C., 80 μL of lysis buffer was added to each well.
(In general: Tetrazolium dyes change colour on reduction, which living cells bring about.)

The subject of data set [3] is LoVo/DX (drug-resistant human colon cancer). The experiment in a line: In vitro cytotoxicity test, SRB assay, 72 h incubation with compound. The following applies: for IC50: LoVo/DX drug-resistant human colon cancer, SRB, 72 h; for RI: drug resistance coefficient, LoVo/DX versus LoVo, 4320 min; for SI LoVo/DX: selectivity coefficient, BALB/3T3 versus LoVo/DX. It is filed as cell-based. How it is done: as §2, §3

The test system of data set [4] is MCF-7 (human breast cancer). The description is as above. The data set is classed as cell-based. The conditions noted are these: for IC50: MCF-7 human breast cancer, SRB, 72 h; for SI MCF-7: selectivity coefficient, BALB/3T3 versus MCF-7. How it is done:
as §2, §3

The subject of a further data set is Hs294T (human melanoma). Described as above. The data set is classed as cell-based. The following applies: for IC50: Hs294T human melanoma, SRB, 72 h; for SI Hs294T: selectivity coefficient, BALB/3T3 versus Hs294T. How it is done: as §2, §3
Data set [5] has as its system LoVo (drug-sensitive human colon cancer). Described as above. The data set is classed as cell-based. The conditions noted are these: for IC50: LoVo drug-sensitive human colon cancer, SRB, 72 h; for SI LoVo: selectivity coefficient, BALB/3T3 versus LoVo. How it is done:
as §2, §3

A further data set relates to B16-F0 (murine melanoma). Described as above. It is filed as cell-based. The conditions noted are these: for IC50: B16-F0 murine melanoma, SRB, 72 h; for SI B16-F0: selectivity coefficient, BALB/3T3 versus B16-F0. The procedure: as §2, §3
The test system of data set [6] is advanced head, neck, breast and ovarian cancer. The following applies: small group of patients with advanced head; cited from earlier work.
Data set [7] can be described thus: In vitro cytotoxicity test on normal cells, SRB assay, 72 h incubation with compound. It is filed as cell-based. The conditions noted are these: mouse, balb/3t3 cells, normal murine fibroblasts, read-out: IC50 BALB/3T3. The procedure:
as §1, §2, §3

In the case of `CCOC(=O)N[C@H]1C=C[C@]2(O[C@H]([C@@H](CC)C(=O)[C@@H](C)[C@@H](O)[C@H](C)[C@@H]3O[C@@H]([C@@H](CC)C(=O)O)CC[C@@H]3C)[C@@H](C)C[C@H]2C)O[C@@]12CC[C@@](C)([C@H]1CC[C@](O)(CC)[C@H](C)O1)O2` [(19 epi), reference compound], the CC50 in data set [1] was found to be 1000 nM. Also, in [2], the IC50 was found to be 46 nM and the “SI MV-4-11” value is reported as 22. For the same compound, in data set [3], the IC50 worked out at 700 nM, the RI was determined as 3 and the “SI LoVo/DX” value is recorded as 1.4. In data set [4], the IC50 is 1000 nM and the “SI MCF-7” value is recorded as 1. Besides, in the data set with Hs294T (human melanoma), the concentration for half-maximal inhibition (IC50) came out at 60 nM and the “SI Hs294T” value came to 16. In data set [5], the IC50 was found to be 240 nM and the “SI LoVo” value came out at 4.1. Also, in the data set with B16-F0 (murine melanoma), the IC50 is 330 nM and the “SI B16-F0” value was determined as 3.

Take `CC[C@@H](C(=O)[C@@H](C)[C@@H](O)[C@H](C)[C@@H]1O[C@@H]([C@@H](CC)C(=O)O)CC[C@@H]1C)[C@H]1O[C@]2(C=C[C@@H](O)[C@]3(CC[C@@](C)([C@H]4CC[C@](O)(CC)[C@H](C)O4)O3)O2)[C@H](C)C[C@@H]1C` [salinomycin]: the “effect on cancer progression in patients” value in data set [6] was “inhibition of cancer progression”. The “side effects in patients” value in [6] is “no acute side effects”. Also, the CC50 at 72 h in [7] turned out to be 2080 nM. The IC50 in data set [2] (MV4-11) worked out at 70 nM; in data set [3] it was 480 nM; in data set [4] (MCF7), 2100 nM; in the data set with Hs294T (human melanoma) (Hs 294T), 560 nM; in data set [5] it was 210 nM; in the data set on B16-F0 (murine melanoma) (Mus musculus, B16F0), 630 nM. The “SI MV-4-11” value in [2] amounted to 29.7. Besides, the RI in [3] was determined as 2.3. The “SI LoVo/DX” value in data set [3] is 4.3. Moreover, the “SI MCF-7” value in [4] worked out at 1.0. Besides, the “SI Hs294T” value in the data set on Hs294T (human melanoma) was determined as 3.7. In addition, the “SI LoVo” value in data set [5] was 9.9. Moreover, the “SI B16-F0” value in the data set with B16-F0 (murine melanoma) is given as 3.3.

The IC50 is the concentration that gives 50% inhibition.
